This note sets out measurements from US11684592B2, “Multiresistant-tumour sensitiser” (Instituto Nacional de Neurologia Y Neurocirugia Manuel …, priority 2017, dated 2023).

One series concerns C6 cells. Description: Determination of Reactive Oxygen Species (ROS). It is filed as cell-based, rat. The note with it: 1 hour. The protocol: Intracellular generation of ROS was evaluated in real time by fluorescence microscopy using the ENZ-51011 detection kit (Enzo® Life Sciences). 5×10^3 cells per well were grown in half-area 96 wells plates (Costar 3595®) and incubated for 24 hours. Then, were incubated for 1 hour, with curcumin (2, 15, 30 or 100 μM), or Cur-[G2]-OH (6, 45, 90 or 300 μM) alone or in the presence of the ROS inhibitor N-Acetyl Cysteine (NAC, 400 μM) according to the manufacturer's instructions. As controls, pyocyanin (200 μM) was used as an inducer and NAC […] as an inhibitor, or DMEM medium with or without DMSO as a negative control. At the end of treatment, the test solutions were withdrawn, and the ROS detection solution was added. The plates were observed under bright field and fluorescence microscopy with the GFP filter (λ=469-525 nm), in the Cytation 3® multimodal reader (BioTek®, USA), and the images were captured and analyzed with the Gen5 2.06 program (BioTek®, USA). The experiments were performed five times.

Series [1] in a line: Stability in acidic pH of gastric juices. It is filed as physicochemical.
For a further series, the system named is C6 cells from rat glioma. Description: Determination of apoptotic death by dual staining with propidium iodide and Hoechst 33342. It is filed as cell-based. The note with it: curcumin 100 μM or Cur-[G2]-OH 300 μM, 24 or 48 hours. How it is done:
C6 cells from rat glioma (American Tissue Culture Collection, Rockville, Md., U.S.A. ATCC® CCL-107™) cultured under standard conditions in DMEM medium supplemented with Bovine Fetal Serum and 15% horse serum were used for the experiments.
1×10^4 C6 cells/well were cultured with 100 μl of Dulbecco's Modified Eagle's Medium (DMEM) medium for 24 hours in 96-well plates. The cells were treated with curcumin (100 μM), or with Cur-[G2]-OH (300 μM), or with the respective vehicle as a control. After 24- or 48-hours post-treatment, the cells were fixed with a mixture of methanol/acetone (1:1) and stained with propidium iodide (0.5 μg/ml), washed and Hoechst 33342 dye was added (0.1 μg/ml) for staining the nuclei. Cells were observed on the Cytation 3® plate reader (BioTek® Instruments, Inc.) using the DAPI (λ=377-447 nm) and Texas Red (λ=586-647 nm) filters, and the images were captured and analyzed with the Gen5 2.06® program.

The subject of series [2] is Beclin-1, p62, Nrf2, eIF2a and p-eIF2α in C6 cells. Description: Analysis of autophagy markers and Nrf2 pathway by Western blot. Format: cell-based, rat. How it is done:
C6 cells were grown in 25 cm^2 culture bottles (Corning® N.Y.) to form a 70% confluent monolayer (approximately 4×10^6 cells) and treated with Cur-[G2]-OH (300 μM) for 24 hours. The cells were washed in cold PBS, and lysis buffer (50 mM Tris-HCl, 120 mM NaCl, 0.01% IGEPAL) was added with a protease inhibitor cocktail (Sigma® P8340) and centrifuged to recover the supernatant. Proteins were quantified by the Lowry method (Lowry et al. 1951).
[…] The membranes were blocked with skim milk and subsequently incubated with the respective primary antibody (Beclin1, ab62557; p62, ab91526; Nrf2, sc-30915; p-eIF2α, sc-12412; eIF2, sc-11386 or β-actin, sc-47778) under stirring overnight at 4° C. After incubation, the membranes were washed with a Tween 20 tris-base saline buffer (TBST) and incubated with the respective secondary antibody conjugated to horseradish peroxidase (SIGMA). The bands were visualized by chemiluminescence with the Western Blotting Luminol Reagent reagents (Santacruz Biotechnology®), and the ChemiDoc-It® TS2 Imaging System (UVP, LLC).

Setting [3] is: Cur-[G2]-OH 300 μM, 24 h, vs untreated cells.
Setting [4] is: curcumin 2, 15 and 30 μM or Cur-[G2]-OH 6, 45 and 90 μM, 24 h.

As for `COc1cc(/C=C/C(=O)/C=C(O)/C=C/c2ccc(OC(=O)C(C)(COC(=O)C(C)(CO)CO)COC(=O)C(C)(CO)CO)c(OC)c2)ccc1OC(=O)C(C)(COC(=O)C(C)(CO)CO)COC(=O)C(C)(CO)CO` [Cur-[G-2]-OH], the “generation of ROS” value in the series on C6 cells (curcumin 2, 15, 30 or 100 μM or Cur-[G2]-OH 6, 45, 90 or 300 μM, without NAC) is given as “promotes the generation of ROS in a concentration-depending manner”. Also, the “generation of ROS in the presence of N-acetyl Cysteine (NAC)” value in the series on C6 cells (with NAC 400 μM) is “not substantially modified with the use of an antioxidant (NAC)”. Moreover, the “stability in acidic pH” value in series [1] was “instability of Cur-[G-2]-OH in the acidic pH of gastric juices”. In addition, the “nuclear staining / apoptotic morphology (propidium iodide and Hoechst 33342)” value with C6 cells from rat glioma is “staining of the nuclei similar to that of the untreated controls”. Also, in series [2] (setting [3]), the “expression of Beclin1 (Western blot)” value is recorded as “increases the expression of Beclin1” and the “expression of p62 (Western blot)” value was “decreases the expression of p62”. For the same compound, in series [2] (Cur-[G2]-OH 300 μM, vs untreated cells), the “total levels of the Nrf2 protein (immunoblot)” value is listed as “significant decrease in Total levels of the Nrf2 protein”. Moreover, in series [2] (setting [4]), the “levels of total eIF2-α (immunoblot)” value was “without substantial changes in the levels of total eIF2-α” and the “phosphorylation of eIF2-α (p-eIF2-α, immunoblot)” value was “significant decrease in phosphorylation of eIF2-α”.
